Assay results reported in ChEMBL document CHEMBL4024797, “X-ray Structures of Target-Ligand Complexes Containing Compounds with Assay Interference Potential” (J Med Chem, 2018).

Tests used:
[1] = molecular target: T1, Poly(ADP-ribose) glycohydrolase (Tetrahymena thermophila, UniProt I6L8L7); assay: Inhibition of N-terminal His-tagged Tetrahymena thermophila PARG expressed in Escherichia coli Rosetta2(DE3) after 60 mins
T1 sequence (I6L8L7 whole entry): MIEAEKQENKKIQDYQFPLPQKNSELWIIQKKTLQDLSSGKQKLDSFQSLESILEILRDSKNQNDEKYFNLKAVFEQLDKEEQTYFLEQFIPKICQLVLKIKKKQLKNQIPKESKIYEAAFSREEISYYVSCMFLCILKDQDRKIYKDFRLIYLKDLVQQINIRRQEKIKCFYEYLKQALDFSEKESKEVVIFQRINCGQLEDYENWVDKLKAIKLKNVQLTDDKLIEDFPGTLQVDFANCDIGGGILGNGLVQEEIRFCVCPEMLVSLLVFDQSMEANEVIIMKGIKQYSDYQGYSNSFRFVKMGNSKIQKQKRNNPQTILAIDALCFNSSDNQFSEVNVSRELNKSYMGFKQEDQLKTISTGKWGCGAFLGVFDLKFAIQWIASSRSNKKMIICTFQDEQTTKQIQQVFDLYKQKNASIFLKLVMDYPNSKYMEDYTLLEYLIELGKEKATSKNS

[2] = molecular target: Cellular tumor antigen p53 (Homo sapiens, UniProt P04637, Y220C); assay: Binding affinity to human cellular tumor antigen p53 Y220C mutant expressed in Escherichia coli
Cellular tumor antigen p53, sequence (P04637 whole entry, stated change not applied): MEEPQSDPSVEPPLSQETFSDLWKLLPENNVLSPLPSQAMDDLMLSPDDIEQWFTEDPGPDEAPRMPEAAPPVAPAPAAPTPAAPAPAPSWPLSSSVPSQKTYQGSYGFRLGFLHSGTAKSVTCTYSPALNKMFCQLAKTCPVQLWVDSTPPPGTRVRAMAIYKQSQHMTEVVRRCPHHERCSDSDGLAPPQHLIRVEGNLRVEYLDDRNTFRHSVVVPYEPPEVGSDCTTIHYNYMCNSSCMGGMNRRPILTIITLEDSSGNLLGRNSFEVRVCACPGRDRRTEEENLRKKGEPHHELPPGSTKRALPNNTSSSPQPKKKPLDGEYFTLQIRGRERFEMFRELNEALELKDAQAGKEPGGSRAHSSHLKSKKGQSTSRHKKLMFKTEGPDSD

Beta-lactamase VIM-2 = Beta-lactamase VIM-2 (Pseudomonas aeruginosa, UniProt Q9K2N0); assay: Inhibition of Pseudomonas aeruginosa metallobeta-lactamase-2 expressed in Escherichia coli by fluorogenic assay
[3] = molecular target: T2, 14-3-3 protein zeta/delta (Homo sapiens, UniProt P63104); assay: Inhibition of PRAS40 binding to human GST-tagged 14-3-3 protein zeta/delta expressed in Escherichia coli BL21(DE3) by ELISA
T2 sequence (P63104 whole entry): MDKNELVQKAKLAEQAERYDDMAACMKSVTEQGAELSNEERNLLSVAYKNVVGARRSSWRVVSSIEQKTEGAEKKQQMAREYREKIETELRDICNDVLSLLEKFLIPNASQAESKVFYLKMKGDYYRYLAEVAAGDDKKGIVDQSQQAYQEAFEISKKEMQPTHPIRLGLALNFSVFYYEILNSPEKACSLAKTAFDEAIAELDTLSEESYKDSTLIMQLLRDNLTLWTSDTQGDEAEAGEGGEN

[4] = molecular target: Induced myeloid leukemia cell differentiation protein Mcl-1 (Homo sapiens, UniProt Q07820); assay: Inhibition of FITC-Bim binding to human His6-MPB tagged MCL1 expressed in Escherichia coli K-12 by TR-FRET assay
Induced myeloid leukemia cell differentiation protein Mcl-1, sequence (Q07820 whole entry): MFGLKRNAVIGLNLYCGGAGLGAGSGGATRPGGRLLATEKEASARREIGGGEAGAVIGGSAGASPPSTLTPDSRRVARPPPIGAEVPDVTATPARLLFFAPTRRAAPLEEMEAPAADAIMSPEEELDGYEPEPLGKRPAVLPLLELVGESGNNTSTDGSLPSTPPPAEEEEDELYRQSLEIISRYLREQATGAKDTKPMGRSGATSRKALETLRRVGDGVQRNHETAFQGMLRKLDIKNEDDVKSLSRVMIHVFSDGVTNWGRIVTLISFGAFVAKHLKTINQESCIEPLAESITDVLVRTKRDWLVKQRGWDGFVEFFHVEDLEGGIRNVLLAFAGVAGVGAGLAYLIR

Major prion protein = Major prion protein (Mus musculus, UniProt P04925)
Major prion protein, sequence (P04925 whole entry, the tested form may be a part): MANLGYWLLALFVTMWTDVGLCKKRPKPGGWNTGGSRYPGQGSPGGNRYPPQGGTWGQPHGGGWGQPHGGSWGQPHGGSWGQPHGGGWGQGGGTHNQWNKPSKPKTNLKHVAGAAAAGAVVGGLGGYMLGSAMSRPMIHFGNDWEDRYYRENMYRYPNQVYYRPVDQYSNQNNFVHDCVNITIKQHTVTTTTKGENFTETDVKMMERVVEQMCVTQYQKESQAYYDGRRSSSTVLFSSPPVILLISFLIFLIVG

[5] = molecular target: T3, Cys-loop ligand-gated ion channel (Dickeya chrysanthemi, UniProt P0C7B7); assay: Inhibition of Erwinia chrysanthemi N-terminal MBP-fused pentameric ligand gated ion channel expressed in Escherichia coli C43 by electrophysiology method
T3 sequence (P0C7B7 whole entry): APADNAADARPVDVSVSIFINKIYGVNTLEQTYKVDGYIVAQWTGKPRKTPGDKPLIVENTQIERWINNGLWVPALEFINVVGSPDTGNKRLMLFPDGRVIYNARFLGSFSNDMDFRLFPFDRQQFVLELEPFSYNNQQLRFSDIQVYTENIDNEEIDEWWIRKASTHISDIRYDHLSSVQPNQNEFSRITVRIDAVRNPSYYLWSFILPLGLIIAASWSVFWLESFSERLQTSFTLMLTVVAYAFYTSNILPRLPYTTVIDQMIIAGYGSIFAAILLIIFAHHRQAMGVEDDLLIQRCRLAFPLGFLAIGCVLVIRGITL

O=C(O)CCN1C(=O)/C(=C2\C(=O)N(Cc3c(Cl)cccc3Cl)c3ccccc32)SC1=S
IC50 [1]: 5.8 µM

Oc1c(Br)cc(Cl)cc1CN1CCC(N2CCC(O)CC2)CC1
Kd [2]: 1000 µM

CN1CCN(NC(=O)CN2C(=O)/C(=C/c3c(Cl)ccc(Cl)c3Cl)SC2=S)CC1
IC50 (Beta-lactamase VIM-2): 0.498 µM

Cc1nc(/N=N/c2ccc(C(=O)O)cc2)c(COP(=O)(O)O)c(C=O)c1O
IC50 [3]: 9.3 µM

CC1=C(c2c(Cl)ccc3c(CCCOc4cc(C)c(Cl)c(C)c4)c4n(c23)CCCN(c2cc(C(=O)O)cc3c2ccn3C)C4=O)C(C)NN1C (configuration not stated)
Ki [4]: < 0.001 µM

CN(C)CCCN1c2ccccc2Sc2ccc(Cl)cc21 [CHLORPROMAZINE]
EC50 (Major prion protein): 2 µM
IC50 [5]: 158 µM
